Assay [1] addresses T1, Urotensin-2 receptor (Homo sapiens, UniProt Q9UKP6).
T1 sequence (Q9UKP6 whole entry): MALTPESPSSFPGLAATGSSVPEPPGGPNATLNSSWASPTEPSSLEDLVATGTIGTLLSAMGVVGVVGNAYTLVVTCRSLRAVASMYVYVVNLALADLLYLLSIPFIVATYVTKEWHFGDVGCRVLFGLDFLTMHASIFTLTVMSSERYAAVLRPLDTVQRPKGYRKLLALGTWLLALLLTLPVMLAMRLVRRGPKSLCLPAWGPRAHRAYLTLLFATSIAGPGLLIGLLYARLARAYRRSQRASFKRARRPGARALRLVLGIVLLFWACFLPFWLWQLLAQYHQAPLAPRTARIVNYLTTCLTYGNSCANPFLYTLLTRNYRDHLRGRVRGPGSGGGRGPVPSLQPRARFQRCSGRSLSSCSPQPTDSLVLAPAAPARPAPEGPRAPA
Put plainly: Displacement of [125I]human urotensin-2 from human GPR14 transfected in CHO cells. It is filed as cell-based. (Displacement assays read how much labelled ligand stays bound in the presence of the test substance.)

Assay [2] concerns the target T2, Urotensin-2 receptor (Rattus norvegicus, UniProt P49684).
T2 sequence (P49684 whole entry): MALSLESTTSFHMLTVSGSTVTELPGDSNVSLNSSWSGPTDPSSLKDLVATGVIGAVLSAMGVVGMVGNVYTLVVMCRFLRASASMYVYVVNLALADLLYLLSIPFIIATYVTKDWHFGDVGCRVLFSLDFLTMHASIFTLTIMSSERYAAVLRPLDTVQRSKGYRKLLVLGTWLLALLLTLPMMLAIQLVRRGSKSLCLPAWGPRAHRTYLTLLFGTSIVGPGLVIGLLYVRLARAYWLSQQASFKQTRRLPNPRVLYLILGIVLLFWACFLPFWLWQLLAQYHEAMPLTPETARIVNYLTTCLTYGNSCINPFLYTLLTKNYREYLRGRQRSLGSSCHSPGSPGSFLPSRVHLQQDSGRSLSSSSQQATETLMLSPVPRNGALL
The assay is described as follows: Antagonist potency against human urotensin-2-induced contraction of rat aortic ring. It is filed as functional, tissue-based, Aorta. The settings on record: read-out: pA2 (converted).

The species named for assay [3] is Rattus norvegicus. Put plainly: Agonist activity in rat aortic ring contraction assay. It is filed as functional. The conditions noted are these: Aorta.
Assay [4] deals with T3, Urotensin-2 receptor (Rattus norvegicus) (UniProt P49684).
T3 sequence (whole entry): T2 sequence (P49684 whole entry)
The assay is described as follows: Antagonist activity against 0.1 uM human urotensin-2-induced contraction of rat aortic ring. It is filed as functional, tissue-based. Set-up: scale not given: the % may be the effect or the level left. The settings on record: Aorta.

The species entered for assay [5] is Rattus norvegicus. The assay is described as follows: Agonist activity in rat aortic ring contraction assay relative to 1 uM phenylephrine. It is filed as functional.
Assay [6] has as its target T3, Urotensin-2 receptor (Rattus norvegicus). Put plainly: Antagonist activity against 1 uM human urotensin-2-induced contraction of rat aortic ring. It is filed as functional, tissue-based. The conditions noted are these: Aorta.
Assay [7] is filed under the species Rattus norvegicus. The assay is described as follows: Agonist activity in rat aortic ring contraction assay relative to 0.1 uM phenylephrine. The class given is functional, Aorta.

Each structure is given as a SMILES string. Active and inactive are the calls of the source. The calls are words filed in the database; no cut-off is given here. Positions of bridges follow the written chain, without caps; N, C: chain ends. Non-standard residues stand in square brackets, D forms with d. Residues, ends and D or L forms follow the SMILES beside them. Tyr(3-NO2) = N[C@@H](Cc1ccc(O)c([N+](=O)[O-])c1)C(=O)O; Phe(4-COOH) = N[C@@H](Cc1ccc(C(=O)O)cc1)C(=O)O; Phe(4-tBu) = CC(C)(C)c1ccc(C[C@H](N)C(=O)O)cc1; Tyr(3-I) = N[C@@H](Cc1ccc(O)c(I)c1)C(=O)O; Phe(4-NH2) = Nc1ccc(C[C@H](N)C(=O)O)cc1; Cha = N[C@@H](CC1CCCCC1)C(=O)O; NMeD = CN[C@@H](CC(=O)O)C(=O)O; pGlu = O=C1CC[C@@H](C(=O)O)N1; Pen = CC(C)(S)[C@H](N)C(=O)O; Aib = CC(C)(N)C(=O)O

`CC(C)[C@H](NC(=O)[C@@H]1CSSC[C@H](NC(=O)[C@@H](N)CC(=O)O)C(=O)N[C@@H](CC2CCCCC2)C(=O)N[C@@H](Cc2c[nH]c3ccccc23)C(=O)N[C@@H](CCCCN)C(=O)N[C@@H](Cc2ccc(O)cc2)C(=O)N1)C(=O)O` gave a Ki on Urotensin-2 receptor [1] of 407 nM. Also, on Urotensin-2 receptor [2], the Kb is 813 nM. For the same compound, the EC50 in the assay listed under Rattus norvegicus [3] was above 10000 nM. In assay [4], this compound yielded an Activity of 95.7%. For the same compound, the outcome in the assay listed under Rattus norvegicus [5] (Aorta) was inactive.
On to `CC(C)[C@H](NC(=O)[C@@H]1CSSC[C@H](NC(=O)[C@@H](N)CC(=O)O)C(=O)N[C@@H](Cc2ccccc2)C(=O)N[C@@H](Cc2c[nH]c3ccccc23)C(=O)N[C@@H](CCCCN)C(=O)N[C@@H](Cc2ccc(C(=O)O)cc2)C(=O)N1)C(=O)O` (H-DCFWK[Phe(4-COOH)]CV-OH; disulfide 2-7), for which the inhibitory constant (Ki) on Urotensin-2 receptor [1] was 74.1 nM. In the assay listed under Rattus norvegicus [3], this compound gave an EC50 of 1700 nM. Further, the result in assay [6] was inactive. Also, the Activity in the assay listed under Rattus norvegicus [5] is reported as 79.3%.
For the compound `CC(C)[C@H](NC(=O)[C@@H]1CSSC[C@H](NC(=O)[C@@H](N)CC(=O)O)C(=O)N[C@@H](Cc2ccccc2)C(=O)N[C@@H](Cc2c[nH]c3ccccc23)C(=O)N[C@@H](CCCCN)C(=O)N[C@@H](Cc2ccc(N)cc2)C(=O)N1)C(=O)O` (H-DCFWK[Phe(4-NH2)]CV-OH; disulfide 2-7), the Ki on Urotensin-2 receptor [1] is 10 nM. Further, the EC50 in the assay filed under Rattus norvegicus [3] was 427 nM. Further, in assay [6], the result was inactive. In the assay listed under Rattus norvegicus [5], this compound had an Activity of 97.7%.
`CC(C)[C@H](NC(=O)[C@@H]1CSSC[C@H](NC(=O)[C@@H](N)CC(=O)O)C(=O)N[C@@H](Cc2ccccc2)C(=O)N[C@@H](Cc2c[nH]c3ccccc23)C(=O)N[C@@H](CCCCN)C(=O)N[C@@H](Cc2ccc(C(C)(C)C)cc2)C(=O)N1)C(=O)O` (H-DCFWK[Phe(4-tBu)]CV-OH; disulfide 2-7) gave a Ki at Urotensin-2 receptor [1] of 9.12 nM. The same compound gave an EC50 in the assay listed under Rattus norvegicus [3] of 23.4 nM. Also, the outcome in assay [6] was inactive. The Activity in the assay listed under Rattus norvegicus [5] is given as 88.5%.
`CC(C)[C@H](NC(=O)[C@@H]1CSSC[C@H](NC(=O)[C@@H](N)CC(=O)O)C(=O)N[C@@H](Cc2ccccc2)C(=O)N[C@@H](Cc2c[nH]c3ccccc23)C(=O)N[C@@H](CCCCN)C(=O)N[C@@H](Cc2ccc(O)c([N+](=O)[O-])c2)C(=O)N1)C(=O)O` (H-DCFWK[Tyr(3-NO2)]CV-OH; disulfide 2-7) gave an inhibitory constant (Ki) at Urotensin-2 receptor [1] of 2.4 nM. In the assay filed under Rattus norvegicus [3], this compound gave an EC50 of 9.77 nM. Moreover, the result in assay [6] was inactive. Further, the Activity in the assay filed under Rattus norvegicus [5] amounted to 95%.
On Urotensin-2 receptor [1], `CC(C)C[C@@H]1NC(=O)[C@@H](NC(=O)[C@@H](N)CC(=O)O)CSSC[C@@H](C(=O)N[C@H](C(=O)O)C(C)C)NC(=O)[C@H](Cc2ccc(O)cc2)NC(=O)[C@H](CCCCN)NC(=O)[C@H](Cc2c[nH]c3ccccc23)NC1=O` (H-DCLWKYCV-OH; disulfide 2-7) had an inhibition constant (Ki) of 132 nM. Also, the Activity in the assay filed under Rattus norvegicus [7] is listed as 38.7%. In the assay filed under Rattus norvegicus [3], the half-maximal effective concentration (EC50) was above 10000 nM. In assay [6], the outcome was inactive.
`CC(C)[C@H](NC(=O)[C@@H]1CSSC[C@H](NC(=O)[C@@H](N)CC(=O)O)C(=O)N[C@@H](CC2CCCCC2)C(=O)N[C@@H](Cc2c[nH]c3ccccc23)C(=O)N[C@@H](CCCCN)C(=O)N[C@@H](Cc2ccc(O)c(I)c2)C(=O)N1)C(=O)O` (H-DC[Cha]WK[Tyr(3-I)]CV-OH; disulfide 2-7): the Ki at Urotensin-2 receptor [1] is 19.5 nM. The EC50 in the assay listed under Rattus norvegicus [3] was 355 nM. The result in assay [6] was inactive. In the assay listed under Rattus norvegicus [5], this compound had an Activity of 82.1%.
For `CC(C)[C@H](NC(=O)[C@@H]1CSSC(C)(C)[C@H](NC(=O)[C@@H](N)CC(=O)O)C(=O)N[C@@H](CC2CCCCC2)C(=O)N[C@@H](Cc2c[nH]c3ccccc23)C(=O)N[C@@H](CCCCN)C(=O)N[C@@H](Cc2ccc(O)cc2)C(=O)N1)C(=O)O` (H-D[Pen][Cha]WKYCV-OH; disulfide 2-7) the same measures were 155 nM, 1910 nM, “inactive” and 14.8%.
On Urotensin-2 receptor [1], `CC(C)[C@H](NC(=O)[C@@H]1CSSC[C@H](NC(=O)[C@@H](N)CCC(=O)O)C(=O)N[C@@H](Cc2ccccc2)C(=O)N[C@@H](Cc2c[nH]c3ccccc23)C(=O)N[C@@H](CCCCN)C(=O)N[C@@H](Cc2ccc(O)cc2)C(=O)N1)C(=O)O` (H-ECFWKYCV-OH; disulfide 2-7) showed a Ki of 2.95 nM. For the same compound, the 50% effective concentration (EC50) in the assay listed under Rattus norvegicus [3] is 4.79 nM. Also, the outcome in assay [6] was inactive. The Activity in the assay filed under Rattus norvegicus [5] came out at 82.1%.
For `CC(C)[C@H](NC(=O)[C@@H]1CSSC[C@H](NC(=O)C(C)(C)N)C(=O)N[C@@H](Cc2ccccc2)C(=O)N[C@@H](Cc2c[nH]c3ccccc23)C(=O)N[C@@H](CCCCN)C(=O)N[C@@H](Cc2ccc(O)cc2)C(=O)N1)C(=O)O` (H-[Aib]CFWKYCV-OH; disulfide 2-7) the same measures were 2.24 nM, 5.62 nM, “inactive” and 83.9%.
For `CN[C@@H](CC(=O)O)C(=O)N[C@H]1CSSC[C@@H](C(=O)N[C@H](C(=O)O)C(C)C)NC(=O)[C@H](Cc2ccc(O)cc2)NC(=O)[C@H](CCCCN)NC(=O)[C@H](Cc2c[nH]c3ccccc23)NC(=O)[C@H](Cc2ccccc2)NC1=O` (H-[NMeD]CFWKYCV-OH; disulfide 2-7) the same measures were 1.62 nM, 6.03 nM, “inactive” and 93.1%.
`CC(C)[C@H](NC(=O)[C@@H]1CSSC[C@H](NC(=O)[C@@H]2CCC(=O)N2)C(=O)N[C@@H](Cc2ccccc2)C(=O)N[C@@H](Cc2c[nH]c3ccccc23)C(=O)N[C@@H](CCCCN)C(=O)N[C@@H](Cc2ccc(O)cc2)C(=O)N1)C(=O)O` ([pGlu]CFWKYCV-OH; disulfide 2-7) showed a Ki on Urotensin-2 receptor [1] of 0.912 nM. Moreover, the EC50 in the assay listed under Rattus norvegicus [3] is 5.89 nM. Besides, in assay [6], the outcome was inactive. In addition, the Activity in the assay listed under Rattus norvegicus [5] is recorded as 98.6%.

For orientation: Ki means a measure of affinity in units of concentration, obtained from inhibition or displacement. As a reminder, the EC50 is the concentration that produces a half-maximal response.

The record behind these values is ChEMBL document CHEMBL1137360, “Structure-activity relationships of a novel series of urotensin II analogues: identification of a urotensin II antagonist” (J Med Chem, 2006).
